Test results reported in ChEMBL document CHEMBL1909046, “DrugMatrix in vitro pharmacology data”.

Assays:
Neutrophil elastase = target: T1, Neutrophil elastase (Homo sapiens, UniProt P08246); assay type: tissue-based;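 also: inhibition of neutrophil elastase enzyme activity, measured with a p-nitroanilide-linked peptide substrate; in other assays of this panel Not Active means under 50% inhibition at 10 µM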
T1 sequence (P08246 whole entry): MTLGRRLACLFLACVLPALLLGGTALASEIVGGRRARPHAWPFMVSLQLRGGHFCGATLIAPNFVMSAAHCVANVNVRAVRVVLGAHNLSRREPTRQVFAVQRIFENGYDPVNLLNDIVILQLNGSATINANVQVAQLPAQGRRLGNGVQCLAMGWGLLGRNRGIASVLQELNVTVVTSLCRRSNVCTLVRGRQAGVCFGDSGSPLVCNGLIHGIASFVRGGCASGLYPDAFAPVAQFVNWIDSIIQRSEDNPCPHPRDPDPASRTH

[1] = target: C-C chemokine receptor type 5 (Homo sapiens, UniProt P51681); assay type: cell membranes, HEK293, Membrane; settings: hek293; also: in other assays of this panel Not Active means under 50% inhibition at 10 µM
Sequence of C-C chemokine receptor type 5 (P51681 whole entry): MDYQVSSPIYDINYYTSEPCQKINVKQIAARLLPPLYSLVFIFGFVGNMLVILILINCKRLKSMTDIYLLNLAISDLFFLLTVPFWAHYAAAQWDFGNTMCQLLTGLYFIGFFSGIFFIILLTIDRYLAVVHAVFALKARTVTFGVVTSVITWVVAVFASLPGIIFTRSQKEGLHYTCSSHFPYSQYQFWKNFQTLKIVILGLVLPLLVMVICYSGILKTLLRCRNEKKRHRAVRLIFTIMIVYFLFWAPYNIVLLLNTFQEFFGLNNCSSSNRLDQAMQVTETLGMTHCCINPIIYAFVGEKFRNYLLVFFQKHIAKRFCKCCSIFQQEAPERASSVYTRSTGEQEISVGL

[2] = target: T2, Alpha-1A adrenergic receptor (Rattus norvegicus, UniProt P43140); test: DRUGMATRIX: Alpha-1A adrenergic receptor radioligand binding (ligand: prazosin); assay type: cell membranes, Wistar, Submaxillary gland, Membrane; settings: Not Active = under 50% inhibition at 10 µM
T2 sequence (P43140 whole entry): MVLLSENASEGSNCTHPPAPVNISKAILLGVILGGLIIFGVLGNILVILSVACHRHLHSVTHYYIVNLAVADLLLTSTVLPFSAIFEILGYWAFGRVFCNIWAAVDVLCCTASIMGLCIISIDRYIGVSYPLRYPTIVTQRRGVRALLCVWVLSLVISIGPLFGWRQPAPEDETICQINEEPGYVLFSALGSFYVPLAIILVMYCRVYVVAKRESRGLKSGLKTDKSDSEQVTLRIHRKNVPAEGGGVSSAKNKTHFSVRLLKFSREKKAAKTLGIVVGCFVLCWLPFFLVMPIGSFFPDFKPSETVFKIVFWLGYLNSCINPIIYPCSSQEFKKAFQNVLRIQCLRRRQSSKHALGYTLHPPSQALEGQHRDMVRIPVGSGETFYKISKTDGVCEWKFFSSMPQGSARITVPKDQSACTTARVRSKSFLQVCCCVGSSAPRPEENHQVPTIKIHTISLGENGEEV

[3] = target: Tyrosine-protein kinase Fyn (Homo sapiens, UniProt P06241); test: biochemical; assay type: cell-based, Insect cells; settings: insect cells;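 also: enzymatic inhibition of Fyn kinase activity measured with Poly(Glu:Tyr) as the phosphorylation substrate; in other assays of this panel Not Active means under 50% inhibition at 10 µM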
Sequence of Tyrosine-protein kinase Fyn (P06241 whole entry): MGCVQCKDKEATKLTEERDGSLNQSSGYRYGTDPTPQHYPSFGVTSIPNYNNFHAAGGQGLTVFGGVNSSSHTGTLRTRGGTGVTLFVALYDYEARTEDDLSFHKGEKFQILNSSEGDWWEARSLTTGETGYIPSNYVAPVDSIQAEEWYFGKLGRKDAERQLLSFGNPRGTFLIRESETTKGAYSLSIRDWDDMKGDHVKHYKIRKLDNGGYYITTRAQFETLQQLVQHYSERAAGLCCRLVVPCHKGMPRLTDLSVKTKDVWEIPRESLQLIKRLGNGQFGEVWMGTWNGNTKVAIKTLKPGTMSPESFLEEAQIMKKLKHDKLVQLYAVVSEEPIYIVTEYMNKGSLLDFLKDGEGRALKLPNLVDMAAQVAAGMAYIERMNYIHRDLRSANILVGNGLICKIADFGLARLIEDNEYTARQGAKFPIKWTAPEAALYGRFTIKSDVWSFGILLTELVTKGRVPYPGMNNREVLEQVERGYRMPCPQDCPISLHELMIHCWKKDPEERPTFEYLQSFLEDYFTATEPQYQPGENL

[4] = target: Tyrosine-protein kinase Lck (Homo sapiens, UniProt P06239); test: DRUGMATRIX: Protein Tyrosine Kinase, LCK enzyme inhibition (substrate: Poly(Glu:Tyr)); assay type: cell-based, Insect cells; settings: insect cells; Not Active = under 50% inhibition at 10 µM
Sequence of Tyrosine-protein kinase Lck (P06239 whole entry): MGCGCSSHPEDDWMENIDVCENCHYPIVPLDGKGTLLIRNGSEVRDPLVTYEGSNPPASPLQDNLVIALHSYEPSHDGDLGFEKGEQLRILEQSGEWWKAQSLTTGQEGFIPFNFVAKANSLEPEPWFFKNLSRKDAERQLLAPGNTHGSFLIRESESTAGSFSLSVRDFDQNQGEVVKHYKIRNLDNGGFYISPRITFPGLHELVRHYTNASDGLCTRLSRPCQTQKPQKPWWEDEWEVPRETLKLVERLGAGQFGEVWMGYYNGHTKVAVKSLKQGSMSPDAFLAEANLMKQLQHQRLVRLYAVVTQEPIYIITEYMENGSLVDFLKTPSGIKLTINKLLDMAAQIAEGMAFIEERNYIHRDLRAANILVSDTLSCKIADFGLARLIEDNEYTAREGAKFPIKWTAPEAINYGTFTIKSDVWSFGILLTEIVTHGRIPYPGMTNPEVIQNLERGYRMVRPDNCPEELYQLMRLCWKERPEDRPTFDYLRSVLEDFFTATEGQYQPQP

[5] = target: T3, Muscarinic acetylcholine receptor M2 (Homo sapiens, UniProt P08172); assay type: cell membranes, CHO-K1, Membrane; settings: cho-k1; also: in other assays of this panel Not Active means under 50% inhibition at 10 µM
T3 sequence (P08172 whole entry): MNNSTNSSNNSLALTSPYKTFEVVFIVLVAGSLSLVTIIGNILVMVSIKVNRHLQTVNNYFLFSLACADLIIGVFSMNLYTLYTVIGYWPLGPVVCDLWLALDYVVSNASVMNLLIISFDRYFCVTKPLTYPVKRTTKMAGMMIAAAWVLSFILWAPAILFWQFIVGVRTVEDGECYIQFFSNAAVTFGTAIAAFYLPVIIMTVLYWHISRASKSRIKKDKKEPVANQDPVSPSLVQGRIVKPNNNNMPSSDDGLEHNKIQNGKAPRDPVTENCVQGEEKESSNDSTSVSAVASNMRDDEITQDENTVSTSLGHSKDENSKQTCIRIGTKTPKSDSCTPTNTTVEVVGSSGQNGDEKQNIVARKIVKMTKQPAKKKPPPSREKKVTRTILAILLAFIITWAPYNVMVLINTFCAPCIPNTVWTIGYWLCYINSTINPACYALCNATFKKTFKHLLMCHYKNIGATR

Measured: IC50

CO[C@@H]1[C@@H](OC)[C@H](C)[C@@](O)(CC(=O)O)O[C@H]1[C@H](C)[C@H]1O[C@@]2(CC[C@@](C)([C@H]3CC[C@@](C)([C@@H]4O[C@@H]([C@H]5O[C@](C)(O)[C@H](C)C[C@@H]5C)C[C@@H]4O[C@@H]4C[C@H](OC)[C@@H](OC)[C@H](C)O4)O3)O2)C[C@H](O)[C@H]1C.N [MADURAMICIN]
Not Active: all assays above

CN1C(=O)OC(C)(C)C1=O [TRIMETHADIONE]
Not Active: all assays above

CC1(C)[C@H](C(=O)O)N2C(=O)C[C@H]2S1(=O)=O [SULBACTAM]
Not Active: all assays above
